Reference: patent US20260042755A1, “GPR6 INVERSE AGONISTS” (MapLight Therapeutics, Inc., priority 2022, published 2026)
Blank lines part the entries; values can stand above or below the compound they belong to.

How the values were obtained:
GPR6 = target: T1, GPR6 (Homo sapiens, UniProt P46095); experiment: GPR6 antagonist functional cAMP assay (LANCE Ultra cAMP TR-FRET, CHO cells stably expressing GPR6); type: cell-based
T1 construct: expressed in transfected cells; host or cells: CHO cells
Outline: (§1)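 cAMP quantified by TR-FRET immunoassay after 45 min compound treatment at 37° C of CHO cells stably expressing GPR3 or GPR6, in PDE-inhibitor (Ro 20-1724, 150 μM) buffer with 0.1% BSA. Data scaled between DMSO (0%) and reference compounds (100%); antagonist IC50 by 4-parameter logistic fit.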

GPR3 = target: T2, GPR3 (Homo sapiens, UniProt P46089); experiment: GPR3 antagonist functional cAMP assay (LANCE Ultra cAMP TR-FRET, CHO cells stably expressing GPR3); type: cell-based
T2 construct: expressed in transfected cells; host or cells: CHO cells
Outline: as §1

[1] = CHO cells stably expressing GPR6, cAMP assay
[2] = CHO cells stably expressing GPR3, cAMP assay
[3] = procedure as described in Example 24
[4] = CHO cells stably expressing GPR6, cAMP assay (Example 24)
[5] = CHO cells stably expressing GPR3, cAMP assay (Example 24)

T1 sequence (P46095 whole entry): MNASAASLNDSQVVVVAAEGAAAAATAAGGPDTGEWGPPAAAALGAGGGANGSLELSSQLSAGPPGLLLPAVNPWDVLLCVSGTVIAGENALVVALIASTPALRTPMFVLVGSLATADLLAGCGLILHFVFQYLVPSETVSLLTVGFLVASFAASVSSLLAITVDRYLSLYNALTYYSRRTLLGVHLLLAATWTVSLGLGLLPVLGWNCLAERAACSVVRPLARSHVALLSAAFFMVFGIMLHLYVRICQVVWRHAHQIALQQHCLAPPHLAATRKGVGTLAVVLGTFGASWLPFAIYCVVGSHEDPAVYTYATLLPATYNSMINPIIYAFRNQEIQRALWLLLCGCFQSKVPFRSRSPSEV
T2 sequence (P46089 whole entry, species assumed): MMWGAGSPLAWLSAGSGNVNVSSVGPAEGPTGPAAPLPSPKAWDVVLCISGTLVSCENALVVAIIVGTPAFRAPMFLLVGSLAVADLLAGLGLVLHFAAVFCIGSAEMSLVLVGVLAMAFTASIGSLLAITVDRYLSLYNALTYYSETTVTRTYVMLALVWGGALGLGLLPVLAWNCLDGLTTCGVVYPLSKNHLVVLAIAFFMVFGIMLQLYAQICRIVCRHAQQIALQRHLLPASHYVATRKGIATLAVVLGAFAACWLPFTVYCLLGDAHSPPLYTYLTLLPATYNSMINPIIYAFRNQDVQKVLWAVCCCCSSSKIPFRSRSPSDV

- IC50 (GPR6; procedure of Example 24): 100 to 1000 nM
- IC50 (GPR3; procedure of Example 24): 1000 to 30000 nM
SMILES: CC(C)(O)[C@@](C)(O)c1cc2nc(N3CCC(Oc4ccc(F)cc4F)CC3)c(-c3cnn(C4CC4)c3)nc2cn1 (single isomer, unassigned) [Compound 665]

- IC50 (GPR6; procedure of Example 24): 100 to 1000 nM
- IC50 (GPR3; procedure of Example 24): ≥ 30000 nM
SMILES: CC(C)(O)[C@@H](O)c1cc2nc(N3CCN(Cc4cc(F)ccc4F)CC3)c(-c3cnn(CF)c3)nc2cn1 (single isomer, unassigned) [Compound 725]

- IC50 (GPR6; procedure of Example 24): 100 to 1000 nM
- IC50 (GPR3; procedure of Example 24): 1000 to 30000 nM
SMILES: CC(C)(O)C(C)(O)c1cc2nc(-c3cnn(C4CC4)c3)c(N3CCC(Oc4ccc(F)cc4F)CC3)nc2cn1 (single isomer, unassigned) [Compound 722]

- IC50 (GPR6; procedure of Example 24): 100 to 1000 nM
- IC50 (GPR3; procedure of Example 24): 1000 to 30000 nM
SMILES: CC(C)(O)[C@@](C)(O)c1cc2nc(-c3cnn(CF)c3)c(N3CCN(Cc4ccc(F)cc4F)CC3)nc2cn1 (single isomer, unassigned) [Compound 711]

- IC50 (GPR6; procedure of Example 24): 100 to 1000 nM
- IC50 (GPR3; procedure of Example 24): 1000 to 30000 nM
SMILES: CC(C)(O)Cc1cc2nc(N3CCC(Oc4ccc(F)cc4F)CC3)c(-c3cnn(C4CC4)c3)nc2cn1 [Compound 705, 1-{3-(1-cyclopropyl-4-pyrazolyl)-2-[4-(2,4-difluorophenoxy)-1-piperidyl]-1,4,6-triaza-7-naphthyl}-2-methyl-2-propanol]

- IC50 (GPR6; procedure of Example 24): < 100 nM
- IC50 (GPR3; procedure of Example 24): 1000 to 30000 nM
SMILES: CCn1cc(-c2nc3c(nc2N2CCC(Oc4ccc(F)cc4F)CC2)CCN(C#N)C3)cn1 [Compound 274, 2-(4-(2,4-difluorophenoxy)piperidin-1-yl)-3-(1-ethyl-1H-pyrazol-4-yl)-7,8-dihydropyrido[3,4-b]pyrazine-6(5H)-carbonitrile]

- IC50 (GPR6; [1]): < 100 nM
- IC50 (GPR3; [2]): 100 to 1000 nM
SMILES: Cn1cc(-c2nc3cnc([C@H](O)C(C)(C)O)cc3nc2N2CCN(Cc3ccc(F)cc3F)CC2)cn1 (single isomer, unassigned) [Compound 579]

- IC50 (GPR6; [1]): < 100 nM
- IC50 (GPR3; [2]): 100 to 1000 nM
SMILES: Cn1cc(-c2nc3cc(C(O)C(C)(C)O)ncc3nc2N2CCC(Oc3ccc(F)cc3F)CC2)cn1 (single isomer, unassigned) [Compound 561]

- IC50 (GPR6; [1]): 100 to 1000 nM
- IC50 (GPR3; [2]): 1000 to 30000 nM
SMILES: Cn1cc(-c2nc3cnc(C(C)(O)CO)cc3nc2N2CCC(Oc3ccc(F)cc3F)CC2)cn1 (centres unmarked) [Compound 556, 2-{2-[4-(2,4-difluorophenoxy)-1-piperidyl]-3-(1-methyl-4-pyrazolyl)-1,4,6-triaza-7-naphthyl}-1,2-propanediol]

- IC50 (GPR6; procedure of Example 24): 100 to 1000 nM
- IC50 (GPR3; procedure of Example 24): 1000 to 30000 nM
SMILES: CC(C)(O)[C@](C)(O)c1cc2nc(-c3cnn(CF)c3)c(N3CCN(Cc4ccc(F)cc4F)CC3)nc2cn1 (single isomer, unassigned) [Compound 712]

- IC50 (GPR6; [1]): 100 to 1000 nM
- IC50 (GPR3; [2]): 1000 to 30000 nM
SMILES: CC(C)(O)C(C)(O)c1cc2nc(N3CCN(Cc4ccc(F)cc4F)CC3)c(-c3cnn(CF)c3)nc2cn1 (centres unmarked) [Compound 607, 2-(2-{4-[(2,4-difluorophenyl)methyl]-1-piperazinyl}-3-[1-(fluoromethyl)-4-pyrazolyl]-1,4,6-triaza-7-naphthyl)-3-methyl-2,3-butanediol]

- IC50 (GPR6; [4]): 100 to 1000 nM
- IC50 (GPR3; [5]): 1000 to 30000 nM
SMILES: CC(=O)N1Cc2nc(-c3cnn(C)c3)c(N3CCC(Oc4ccc(F)cc4F)CC3)nc2CC1C (centres unmarked) [Compound 394, 1-{2-[4-(2,4-difluorophenoxy)piperidin-1-yl]-7-methyl-3-(1-methyl-1H-pyrazol-4-yl)-5H,6H,7H,8H-pyrido[3,4-b]pyrazin-6-yl}ethan-1-one]

- IC50 (GPR6; [3]): 100 to 1000 nM
- IC50 (GPR3; [3]): 1000 to 30000 nM
SMILES: COCn1cc(-c2nc3c(nc2N2CCC(Oc4ccc(F)cc4F)CC2)CCN(C(C)=O)C3)cn1 [Compound 14, 1-{2-[4-(2,4-difluorophenoxy)piperidin-1-yl]-3-[1-(methoxymethyl)-1H-pyrazol-4-yl]-5H,6H,7H,8H-pyrido[3,4-b]pyrazin-6-yl}ethan-1-one]

Second part, the compound before the results:

SMILES: CC(=O)N1CCc2nc(N3CCN(C(CO)(CO)c4ccccc4F)CC3)c(-c3cnn(C)c3)nc2C1 [Compound 552, 1-(2-{4-[1-(o-fluorophenyl)-2-hydroxy-1-(hydroxymethyl)ethyl]-1-piperazinyl}-3-(1-methyl-4-pyrazolyl)-5,6,7,8-tetrahydro-1,4,6-triaza-6-naphthyl)-1-ethanone]
- IC50 (GPR6; [1]): 1000 to 30000 nM
- IC50 (GPR3; [2]): ≥ 30000 nM

SMILES: Fc1ccc(Cl)cc1CN1CCN(c2nc3cnccc3nc2-c2ncc[nH]2)CC1 [Compound 42]
- IC50 (GPR6; [3]): 1000 to 30000 nM
- IC50 (GPR3; [3]): 100 to 1000 nM

SMILES: CNC(=O)C(C)N1CCc2nc(N3CCC(Oc4ccc(F)cc4F)CC3)c(-c3cn[nH]c3)nc2C1 (centres unmarked) [Compound 147, 2-{2-[4-(2,4-difluorophenoxy)piperidin-1-yl]-3-(1H-pyrazol-4-yl)-5H,6H,7H,8H-pyrido[3,4-b]pyrazin-6-yl}-N-methylpropanamide]
- IC50 (GPR6; [4]): 1000 to 30000 nM
- IC50 (GPR3; [5]): 1000 to 30000 nM

SMILES: COc1cncc(-c2nc3cnc(Cl)cc3nc2N2CCN(Cc3ccc(F)cc3F)CC2)n1 [Compound 159, 2-(7-chloro-2-{4-[(2,4-difluorophenyl)methyl]piperazin-1-yl}pyrido[3,4-b]pyrazin-3-yl)-6-methoxypyrazine]
- IC50 (GPR6; [4]): 1000 to 30000 nM
- IC50 (GPR3; [5]): 1000 to 30000 nM

SMILES: CC(=O)N1CCc2nc(N3CCC(Oc4ccc(F)cc4F)CC3)c(C3=CCOC3)nc2C1 [Compound 306, 1-{2-[4-(2,4-difluorophenoxy)piperidin-1-yl]-3-(2,5-dihydrofuran-3-yl)-5H,6H,7H,8H-pyrido[3,4-b]pyrazin-6-yl}ethan-1-one]
- IC50 (GPR6; procedure of Example 24): 100 to 1000 nM
- IC50 (GPR3; procedure of Example 24): 1000 to 30000 nM

SMILES: CC(=O)N1CCc2nc(N3CCN(Cc4ccccc4C#N)CC3)c(-c3cnn(C)c3)nc2C1 [Compound 351, 2-({4-[6-acetyl-3-(1-methyl-1H-pyrazol-4-yl)-5H,6H,7H,8H-pyrido[3,4-b]pyrazin-2-yl]piperazin-1-yl}methyl)benzonitrile]
- IC50 (GPR6; procedure of Example 24): 1000 to 30000 nM
- IC50 (GPR3; procedure of Example 24): 1000 to 30000 nM

SMILES: OCCNc1cc2nc(-c3cnn(CF)c3)c(N3CCN(Cc4ccc(F)cc4F)CC3)nc2cn1 [Compound 759, 2-(3-{4-[(2,4-difluorophenyl)methyl]-1-piperazinyl}-2-[1-(fluoromethyl)-4-pyrazolyl]-1,4,6-triaza-7-naphthylamino)ethanol]
- IC50 (GPR6; procedure of Example 24): 100 to 1000 nM
- IC50 (GPR3; procedure of Example 24): 1000 to 30000 nM

SMILES: CC(=O)N1CCc2nc(N3CCC(Oc4ccc(F)cc4F)CC3)c(-c3ccc(=O)[nH]c3)nc2C1 [Compound 51, 5-{6-acetyl-2-[4-(2,4-difluorophenoxy)piperidin-1-yl]-5H,6H,7H,8H-pyrido[3,4-b]pyrazin-3-yl}-1,2-dihydropyridin-2-one]
- IC50 (GPR6; [3]): 100 to 1000 nM
- IC50 (GPR3; [3]): 1000 to 30000 nM

SMILES: CC(=O)N1CCc2nc(N3CCC(Oc4ccccc4C#N)CC3)c(-c3cnn(C)c3)nc2C1 [Compound 499, o-{1-[6-acetyl-3-(1-methyl-4-pyrazolyl)-5,6,7,8-tetrahydro-1,4,6-triaza-2-naphthyl]-4-piperidyloxy} benzonitrile]
- IC50 (GPR6; [1]): 100 to 1000 nM
- IC50 (GPR3; [2]): ≥ 30000 nM

SMILES: COC[C@@H]1CN(Cc2ccc(F)cc2F)CCN1c1nc2ccncc2nc1-c1cnn(C)c1 (single isomer, unassigned) [Compound 240]
- IC50 (GPR6; [4]): 1000 to 30000 nM
- IC50 (GPR3; [5]): 1000 to 30000 nM

SMILES: O=C(CN1CCOCC1)N1CCc2nc(N3CCC(Oc4ccc(F)cc4F)CC3)c(-c3cn[nH]c3)nc2C1 [Compound 149, 1-{2-[4-(2,4-difluorophenoxy)piperidin-1-yl]-3-(1H-pyrazol-4-yl)-5H,6H,7H,8H-pyrido[3,4-b]pyrazin-6-yl}-2-(morpholin-4-yl)ethan-1-one]
- IC50 (GPR6; [4]): 100 to 1000 nM
- IC50 (GPR3; [5]): 1000 to 30000 nM

SMILES: COC1CCCC(c2nc3c(nc2N2CCC(Oc4ccc(F)cc4F)CC2)CCN(C(C)=O)C3)C1 (centres unmarked) [Compound 248, 1-{2-[4-(2,4-difluorophenoxy)piperidin-1-yl]-3-(3-methoxycyclohexyl)-5H,6H,7H,8H-pyrido[3,4-b]pyrazin-6-yl}ethan-1-one]
- IC50 (GPR6; [4]): 1000 to 30000 nM
- IC50 (GPR3; [5]): 1000 to 30000 nM

SMILES: CC(=O)N1CCc2nc(N3CCC(COc4ccc(F)cc4)C3)c(-c3cnn(C)c3)nc2C1 (centres unmarked) [Compound 325, 1-(2-{3-[(4-fluorophenoxy)methyl]pyrrolidin-1-yl}-3-(1-methyl-1H-pyrazol-4-yl)-5H,6H,7H,8H-pyrido[3,4-b]pyrazin-6-yl)ethan-1-one]
- IC50 (GPR6; procedure of Example 24): 1000 to 30000 nM
- IC50 (GPR3; procedure of Example 24): 1000 to 30000 nM

SMILES: CNc1nccc(-c2nc3c(nc2N2CCC(Oc4ccc(F)cc4F)CC2)CCN(C(C)=O)C3)n1 [Compound 473, 1-{2-[4-(2,4-difluorophenoxy)piperidin-1-yl]-3-[2-(methylamino)pyrimidin-4-yl]-5H,6H,7H,8H-pyrido[3,4-b]pyrazin-6-yl}ethan-1-one]
- IC50 (GPR6; [4]): 100 to 1000 nM
- IC50 (GPR3; [5]): 1000 to 30000 nM

SMILES: CC(=O)N1CCC=C(c2nc3c(nc2N2CCC(Oc4ccc(F)cc4F)CC2)CCN(C(C)=O)C3)C1 [Compound 71, 1-[3-(1-acetyl-1,2,5,6-tetrahydropyridin-3-yl)-2-[4-(2,4-difluorophenoxy)piperidin-1-yl]-5H,6H,7H,8H-pyrido[3,4-b]pyrazin-6-yl]ethan-1-one]
- IC50 (GPR6; [4]): 1000 to 30000 nM
- IC50 (GPR3; [5]): 1000 to 30000 nM

SMILES: CCn1cc(-c2nc3c(nc2N2CCC(Oc4ccc(F)cc4F)CC2)CCN(C(=O)C2COCCN2C)C3)cn1 (centres unmarked) [Compound 492, 3-{2-[4-(2,4-difluorophenoxy)piperidin-1-yl]-3-(1-ethyl-1H-pyrazol-4-yl)-5H,6H,7H,8H-pyrido[3,4-b]pyrazine-6-carbonyl}-4-methylmorpholine]
- IC50 (GPR6; [1]): 100 to 1000 nM
- IC50 (GPR3; [2]): 1000 to 30000 nM

SMILES: CC(=O)N1CCc2nc(N3CCC(Oc4ccc(F)cc4F)CC3)c(-c3ccc[nH]c3=O)nc2C1 [Compound 157, 3-{6-acetyl-2-[4-(2,4-difluorophenoxy)piperidin-1-yl]-5H,6H,7H,8H-pyrido[3,4-b]pyrazin-3-yl}-1,2-dihydropyridin-2-one]
- IC50 (GPR6; [4]): ≥ 30000 nM
- IC50 (GPR3; [5]): ≥ 30000 nM

SMILES: CC(=O)N1CCc2nc(N3CCC(Oc4ccc(F)cc4F)CC3)c(-c3cccc(=O)[nH]3)nc2C1 [Compound 33, 6-(6-acetyl-2-(4-(2,4-difluorophenoxy)piperidin-1-yl)-5,6,7,8-tetrahydropyrido[3,4-b]pyrazin-3-yl)pyridin-2(1H)-one]
- IC50 (GPR6; [3]): 100 to 1000 nM
- IC50 (GPR3; [3]): 1000 to 30000 nM
